Data on three molecules can be found in paper PMC4774911, “Biochemical Screening of Five Protein Kinases from Plasmodium falciparum against 14,000 Cell-Active Compounds” (PLoS ONE, 2016).

SMILES strings stand for the structures. pIC50: −log10 of the molar value. Where “and” joins values, the source holds several entries; their conditions need not be identical. Equal entries are not always repeated.

Some targets named below: MARK2 (Homo sapiens, UniProt Q7KZI7); CDC2 (Homo sapiens, UniProt P06493); PAK4 (Homo sapiens, UniProt O96013); CAMK2D (Homo sapiens, UniProt Q13557); CIT (Homo sapiens, UniProt O14578); CDK5 (Homo sapiens, UniProt Q00535); BUB1 (Homo sapiens, UniProt O43683); PRKCB (Homo sapiens, UniProt P05771); AURKB (Homo sapiens, UniProt Q96GD4); CSNK1D (Homo sapiens, UniProt P48730); EIF2AK4 (Homo sapiens, UniProt Q9P2K8).

What all share (experiment): biochemical
For the next assay, the target named is T1, MAP4K2 (Homo sapiens, UniProt Q12851).
T1 sequence (Q12851 1-820): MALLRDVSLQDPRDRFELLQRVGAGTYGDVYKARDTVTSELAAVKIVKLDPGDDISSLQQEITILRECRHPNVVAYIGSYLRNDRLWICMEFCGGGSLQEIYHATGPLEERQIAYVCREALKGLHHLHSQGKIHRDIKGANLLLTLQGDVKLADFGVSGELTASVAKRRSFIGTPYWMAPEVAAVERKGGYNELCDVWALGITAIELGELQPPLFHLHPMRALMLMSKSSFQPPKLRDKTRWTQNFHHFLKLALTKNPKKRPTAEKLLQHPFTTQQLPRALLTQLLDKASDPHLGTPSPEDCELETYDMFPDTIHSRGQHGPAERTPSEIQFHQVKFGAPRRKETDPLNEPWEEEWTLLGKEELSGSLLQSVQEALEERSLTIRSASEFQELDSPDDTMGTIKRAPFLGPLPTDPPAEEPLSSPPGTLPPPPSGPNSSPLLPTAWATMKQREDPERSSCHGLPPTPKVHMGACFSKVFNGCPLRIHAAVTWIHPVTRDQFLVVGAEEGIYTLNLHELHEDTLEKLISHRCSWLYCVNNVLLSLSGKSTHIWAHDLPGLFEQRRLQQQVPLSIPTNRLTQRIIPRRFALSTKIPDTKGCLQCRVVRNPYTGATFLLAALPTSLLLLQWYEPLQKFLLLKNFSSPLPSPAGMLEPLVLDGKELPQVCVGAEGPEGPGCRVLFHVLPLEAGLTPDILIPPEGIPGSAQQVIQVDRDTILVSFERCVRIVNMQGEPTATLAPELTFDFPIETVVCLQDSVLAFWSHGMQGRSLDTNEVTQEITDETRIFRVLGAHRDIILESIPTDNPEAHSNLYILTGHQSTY

The next assay addresses T2, MERTK (Homo sapiens, UniProt Q12866).
T2 sequence (Q12866 1-999): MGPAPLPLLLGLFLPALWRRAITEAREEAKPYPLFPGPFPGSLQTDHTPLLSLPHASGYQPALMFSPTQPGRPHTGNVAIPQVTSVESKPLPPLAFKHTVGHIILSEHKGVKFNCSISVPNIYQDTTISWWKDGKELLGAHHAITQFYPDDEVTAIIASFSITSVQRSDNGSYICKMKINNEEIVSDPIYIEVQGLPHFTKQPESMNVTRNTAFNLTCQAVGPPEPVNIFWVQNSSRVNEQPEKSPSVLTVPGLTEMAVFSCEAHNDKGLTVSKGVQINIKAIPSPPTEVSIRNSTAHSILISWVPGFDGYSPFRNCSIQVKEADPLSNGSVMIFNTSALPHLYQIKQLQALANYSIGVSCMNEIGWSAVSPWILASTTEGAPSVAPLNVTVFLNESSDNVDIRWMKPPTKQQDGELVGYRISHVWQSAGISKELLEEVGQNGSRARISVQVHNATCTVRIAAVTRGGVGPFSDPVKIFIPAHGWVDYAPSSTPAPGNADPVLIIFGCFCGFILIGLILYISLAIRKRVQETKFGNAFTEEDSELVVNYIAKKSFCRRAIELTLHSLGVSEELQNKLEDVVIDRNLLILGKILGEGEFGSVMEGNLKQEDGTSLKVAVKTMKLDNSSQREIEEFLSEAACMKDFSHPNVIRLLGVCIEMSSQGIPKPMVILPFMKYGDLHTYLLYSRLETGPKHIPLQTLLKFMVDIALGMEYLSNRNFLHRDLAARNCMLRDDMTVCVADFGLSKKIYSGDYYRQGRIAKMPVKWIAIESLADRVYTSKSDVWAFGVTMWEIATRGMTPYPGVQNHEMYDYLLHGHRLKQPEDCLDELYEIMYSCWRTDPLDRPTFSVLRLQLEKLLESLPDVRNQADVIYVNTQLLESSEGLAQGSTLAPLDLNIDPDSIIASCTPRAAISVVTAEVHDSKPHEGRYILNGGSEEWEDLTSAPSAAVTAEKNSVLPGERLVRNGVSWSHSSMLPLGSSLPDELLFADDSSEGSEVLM

Chain of EIF2AK4 (Q9P2K8 whole entry): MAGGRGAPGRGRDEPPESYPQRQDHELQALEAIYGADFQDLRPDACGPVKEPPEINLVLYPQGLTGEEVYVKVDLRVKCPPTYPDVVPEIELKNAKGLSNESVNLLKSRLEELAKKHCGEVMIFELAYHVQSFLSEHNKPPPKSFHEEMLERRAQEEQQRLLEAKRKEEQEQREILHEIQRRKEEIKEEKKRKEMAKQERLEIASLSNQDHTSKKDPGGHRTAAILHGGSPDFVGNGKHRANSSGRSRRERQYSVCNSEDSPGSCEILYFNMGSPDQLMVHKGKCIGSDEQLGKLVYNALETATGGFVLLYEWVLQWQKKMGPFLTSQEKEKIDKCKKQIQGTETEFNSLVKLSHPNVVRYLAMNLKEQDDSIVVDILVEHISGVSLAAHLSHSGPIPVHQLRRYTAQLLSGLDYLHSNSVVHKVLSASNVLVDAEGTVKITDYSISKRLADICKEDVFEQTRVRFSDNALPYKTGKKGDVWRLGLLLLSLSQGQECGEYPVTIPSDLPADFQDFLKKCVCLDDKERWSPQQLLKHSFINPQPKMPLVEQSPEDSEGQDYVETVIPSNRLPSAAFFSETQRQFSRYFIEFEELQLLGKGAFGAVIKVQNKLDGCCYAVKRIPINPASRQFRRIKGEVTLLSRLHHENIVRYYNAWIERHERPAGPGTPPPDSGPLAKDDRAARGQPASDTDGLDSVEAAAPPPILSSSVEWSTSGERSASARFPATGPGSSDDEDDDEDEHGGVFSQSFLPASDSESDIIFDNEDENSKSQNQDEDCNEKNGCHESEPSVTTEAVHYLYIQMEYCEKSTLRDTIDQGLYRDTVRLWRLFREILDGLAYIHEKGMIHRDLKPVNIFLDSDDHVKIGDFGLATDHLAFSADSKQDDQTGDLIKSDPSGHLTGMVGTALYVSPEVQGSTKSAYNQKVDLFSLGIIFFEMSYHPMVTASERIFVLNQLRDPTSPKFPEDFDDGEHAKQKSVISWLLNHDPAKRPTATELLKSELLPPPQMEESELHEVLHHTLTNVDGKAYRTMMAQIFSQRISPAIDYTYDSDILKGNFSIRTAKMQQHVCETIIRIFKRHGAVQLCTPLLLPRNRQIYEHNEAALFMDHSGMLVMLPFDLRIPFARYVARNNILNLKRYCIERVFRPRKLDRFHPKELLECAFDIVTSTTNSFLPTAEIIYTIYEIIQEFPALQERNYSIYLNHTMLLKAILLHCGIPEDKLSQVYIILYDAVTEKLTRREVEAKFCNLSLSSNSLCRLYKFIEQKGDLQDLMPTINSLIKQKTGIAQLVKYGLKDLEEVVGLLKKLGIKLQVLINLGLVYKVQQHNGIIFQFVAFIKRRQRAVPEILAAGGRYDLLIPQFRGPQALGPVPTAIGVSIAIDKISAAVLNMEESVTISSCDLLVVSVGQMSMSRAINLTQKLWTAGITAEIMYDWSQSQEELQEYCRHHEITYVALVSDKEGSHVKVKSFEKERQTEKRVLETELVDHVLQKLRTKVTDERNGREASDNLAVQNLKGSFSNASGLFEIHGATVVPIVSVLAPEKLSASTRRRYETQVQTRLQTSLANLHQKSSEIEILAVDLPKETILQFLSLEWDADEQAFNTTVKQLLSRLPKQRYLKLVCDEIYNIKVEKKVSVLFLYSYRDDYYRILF
Chain of CAMK2D (Q13557 whole entry): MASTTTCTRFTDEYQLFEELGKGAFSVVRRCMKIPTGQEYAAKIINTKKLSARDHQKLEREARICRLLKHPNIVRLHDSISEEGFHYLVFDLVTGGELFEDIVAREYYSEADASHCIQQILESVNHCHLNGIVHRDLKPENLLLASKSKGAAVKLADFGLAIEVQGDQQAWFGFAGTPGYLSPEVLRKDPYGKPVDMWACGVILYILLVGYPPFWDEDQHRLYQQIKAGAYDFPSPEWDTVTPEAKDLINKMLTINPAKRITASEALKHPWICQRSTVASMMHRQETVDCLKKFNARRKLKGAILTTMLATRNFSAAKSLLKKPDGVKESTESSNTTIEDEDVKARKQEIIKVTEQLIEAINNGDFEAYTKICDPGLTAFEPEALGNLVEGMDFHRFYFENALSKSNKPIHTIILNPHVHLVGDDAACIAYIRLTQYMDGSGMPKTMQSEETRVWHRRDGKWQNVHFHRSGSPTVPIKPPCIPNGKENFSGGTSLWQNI
Chain of PRKCB (P05771 whole entry): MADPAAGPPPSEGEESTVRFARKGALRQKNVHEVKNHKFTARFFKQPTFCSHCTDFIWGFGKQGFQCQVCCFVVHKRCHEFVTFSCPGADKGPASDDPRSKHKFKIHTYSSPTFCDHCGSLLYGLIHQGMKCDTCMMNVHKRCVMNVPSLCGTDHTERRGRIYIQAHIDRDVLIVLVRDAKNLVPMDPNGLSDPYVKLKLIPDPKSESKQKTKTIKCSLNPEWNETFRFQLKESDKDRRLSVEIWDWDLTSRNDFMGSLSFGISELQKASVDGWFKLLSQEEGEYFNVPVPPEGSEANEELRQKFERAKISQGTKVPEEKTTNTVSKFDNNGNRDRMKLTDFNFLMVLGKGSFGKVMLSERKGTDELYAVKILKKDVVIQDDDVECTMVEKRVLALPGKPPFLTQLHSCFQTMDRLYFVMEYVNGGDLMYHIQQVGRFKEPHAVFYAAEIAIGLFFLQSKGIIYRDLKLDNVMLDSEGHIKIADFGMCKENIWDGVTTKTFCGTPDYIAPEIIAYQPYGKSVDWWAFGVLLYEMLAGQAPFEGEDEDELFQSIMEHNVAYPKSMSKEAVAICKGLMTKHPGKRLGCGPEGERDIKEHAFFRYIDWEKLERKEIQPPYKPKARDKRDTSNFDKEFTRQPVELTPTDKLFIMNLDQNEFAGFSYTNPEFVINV
Chain of CIT (O14578 whole entry): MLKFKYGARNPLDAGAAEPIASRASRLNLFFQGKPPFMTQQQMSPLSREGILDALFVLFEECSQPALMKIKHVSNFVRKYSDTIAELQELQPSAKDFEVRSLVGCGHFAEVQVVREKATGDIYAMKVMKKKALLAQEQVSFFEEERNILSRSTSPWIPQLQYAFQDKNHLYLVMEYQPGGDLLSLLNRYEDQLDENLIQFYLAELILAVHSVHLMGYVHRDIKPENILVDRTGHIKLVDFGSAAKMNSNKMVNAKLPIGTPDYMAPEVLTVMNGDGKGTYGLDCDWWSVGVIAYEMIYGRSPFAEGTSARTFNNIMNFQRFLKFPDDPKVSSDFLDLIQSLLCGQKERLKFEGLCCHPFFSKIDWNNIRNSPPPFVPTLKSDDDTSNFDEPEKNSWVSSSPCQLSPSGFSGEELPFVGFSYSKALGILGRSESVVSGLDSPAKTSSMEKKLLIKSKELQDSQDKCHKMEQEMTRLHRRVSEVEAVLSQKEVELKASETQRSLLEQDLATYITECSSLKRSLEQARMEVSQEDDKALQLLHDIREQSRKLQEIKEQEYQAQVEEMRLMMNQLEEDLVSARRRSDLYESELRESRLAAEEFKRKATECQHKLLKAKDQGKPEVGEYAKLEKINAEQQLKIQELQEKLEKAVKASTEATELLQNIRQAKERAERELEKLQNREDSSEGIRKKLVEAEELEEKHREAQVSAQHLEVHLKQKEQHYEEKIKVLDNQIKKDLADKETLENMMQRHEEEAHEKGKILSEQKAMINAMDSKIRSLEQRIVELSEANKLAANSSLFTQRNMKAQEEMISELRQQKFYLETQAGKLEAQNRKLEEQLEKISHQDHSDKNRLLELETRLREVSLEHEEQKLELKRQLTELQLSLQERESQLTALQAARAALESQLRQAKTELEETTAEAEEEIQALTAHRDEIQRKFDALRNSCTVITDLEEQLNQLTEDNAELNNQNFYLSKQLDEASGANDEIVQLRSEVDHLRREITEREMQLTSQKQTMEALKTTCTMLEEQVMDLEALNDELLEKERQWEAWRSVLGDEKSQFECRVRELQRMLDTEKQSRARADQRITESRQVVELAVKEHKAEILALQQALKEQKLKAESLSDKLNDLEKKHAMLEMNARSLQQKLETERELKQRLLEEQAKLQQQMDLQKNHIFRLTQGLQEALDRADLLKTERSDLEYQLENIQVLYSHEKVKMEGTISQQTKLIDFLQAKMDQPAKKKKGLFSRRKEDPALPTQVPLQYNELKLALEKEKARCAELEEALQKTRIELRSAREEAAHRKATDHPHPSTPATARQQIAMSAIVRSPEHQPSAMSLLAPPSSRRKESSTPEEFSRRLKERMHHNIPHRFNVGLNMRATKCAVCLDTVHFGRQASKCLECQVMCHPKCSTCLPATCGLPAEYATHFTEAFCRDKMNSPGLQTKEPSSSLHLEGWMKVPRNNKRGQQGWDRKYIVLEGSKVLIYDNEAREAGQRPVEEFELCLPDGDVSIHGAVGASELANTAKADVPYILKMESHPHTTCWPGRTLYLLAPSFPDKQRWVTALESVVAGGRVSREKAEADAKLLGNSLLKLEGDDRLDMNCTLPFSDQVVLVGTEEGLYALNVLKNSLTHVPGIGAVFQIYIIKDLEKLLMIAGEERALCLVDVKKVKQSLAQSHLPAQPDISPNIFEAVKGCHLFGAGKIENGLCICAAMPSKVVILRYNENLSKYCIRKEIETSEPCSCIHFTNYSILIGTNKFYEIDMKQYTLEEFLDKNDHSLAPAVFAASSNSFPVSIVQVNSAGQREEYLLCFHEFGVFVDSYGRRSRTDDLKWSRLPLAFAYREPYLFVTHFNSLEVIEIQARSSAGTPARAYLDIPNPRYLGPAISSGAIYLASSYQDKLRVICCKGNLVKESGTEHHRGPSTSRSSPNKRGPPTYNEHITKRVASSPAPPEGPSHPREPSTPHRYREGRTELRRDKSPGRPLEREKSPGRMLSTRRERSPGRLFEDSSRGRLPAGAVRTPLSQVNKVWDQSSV

On to `CN1CCN(c2ccc(Nc3ncc(C#N)c(Nc4ccccc4C(N)=O)n3)cc2)CC1.Cl` [TCMDC-134116], for which the negative logarithm of the IC50 (pIC50) against MARK2 is 6.66 and 6.68; on CDC2, 5.82; on PAK4, 6.42 and 6.38; on CAMK2D it was 5.72 and 6.02; at CIT it was 5.24; on MAP4K2, 6.00. For the same molecule, the pIC50 is 7.17 and 6.96 on CDK5; 6.43 and 6.49 against BUB1; 6.06 against PRKCB; 6.20 at MERTK; 7.40 and 7.19 on AURKB; 5.74 against CSNK1D. On EIF2AK4, the pIC50 is 6.62 and 6.68.

`Cl.NCC1(c2nc(-c3ccc(Cl)c(O)c3)c(-c3ccncc3)[nH]2)CCCCC1` [TCMDC-141154]: the pIC50 at MARK2 was below 4.70; at CDC2 it was below 4.70; on PAK4 it was 5.04 and < 4.70; at CAMK2D, below 4.70; against CIT, 6.80 and 6.55; on MAP4K2, below 4.70. Further, the pIC50 against CDK5 is below 4.70; against BUB1, 6.62 and 6.77; on PRKCB, 4.92 and 5.23; at MERTK it was 5.03; on AURKB it was below 4.70; at CSNK1D, 7.16 and 7.10. The molecule also had a pIC50 against EIF2AK4 below 4.70.

With `CN(C)CC(O)COc1ccc(Nc2ncc([N+](=O)[O-])c(Nc3ccccc3O)n2)cc1.O=C(O)C(F)(F)F` (stereo not drawn) [TCMDC-141399], the pIC50 at MARK2 is 5.19; at CDC2, below 4.70; on PAK4, 5.05 and 5.17; at CAMK2D, below 4.70; against CIT, 5.36; against MAP4K2, below 4.70. Further, the pIC50 is below 4.70 at CDK5; below 4.70 against BUB1; below 4.70 at PRKCB; 5.96 against MERTK; 5.38 against AURKB; below 4.70 against CSNK1D. The pIC50 against EIF2AK4 was 6.59 and 6.46.

What is called pIC50 is −log10 of the IC50, conventionally taken in molar units. Low values mean a high IC50, high ones a low IC50.
